The text below walks through data of paper PMC11212140, “Molecular Bidents with Two Electrophilic Warheads as a New Pharmacological Modality” (ACS Central Science, 2024).

The subject of experiment [1] is EGFR, ERK1/2, and Akt phosphorylation. Kind of experiment: Immunoblot of EGFR signaling pathway in EGFR-mutated Ba/F3 cells. Conditions: EGFR^L858R, EGFR^L858R/C797S and EGFR^L858R/C775S Ba/F3 cells, 6 h. It is filed as cell-based. How it is done: Figure 5 ZNL-0056 covalently engages Cys775 and Cys797 in EGFR Ba/F3 cells. (A) The average IC50 values (mean ± S.D.) of the indicated compounds in EGFR^L858R Ba/F3, EGFR^L858R/C797S Ba/F3, and EGFR^L858R/C775S Ba/F3 cells after […] treatment. The graph was generated from three independent experiments, each performed with four replicates. (B) Immunoblot assessment of the effect of ZNL-0056 on the EGFR signaling pathway in EGFR^L858R Ba/F3, EGFR^L858R/C797S Ba/F3, and EGFR^L858R/C775S Ba/F3 cells after 6 h treatment. Representative data from two independent experiments are shown.
For infection of Ba/F3 cells, 2.5 mL of viral supernatant and 8 μg/mL polybrene was added to 2.5 million cells per well in six-well plates. The plate was centrifuged at 2500 rpm for 90 minutes at 37 °C for the spin infection. […]
Cells were lysed in RIPA buffer (150 mM NaCl, 1.0% IGEPAL® CA-630, 0.5% sodium deoxycholate, 0.1% SDS, 50 mM Tris, pH 8.0) (Sigma, Cat# R0278) with protease inhibitor and phosphatase inhibitor (Roche). The protein concentrations were measured by BCA analysis (Thermo Fisher Scientific, Cat # PI23225). […]
or IRDye 680RD goat anti-Mouse IgG (LICOR Biosciences , Cat # 926-68070) secondary antibodies at room temperature for 1 hour. The membranes were detected on Odyssey CLx system. […]
For orientation: Immunoblotting shows a protein as a band on a membrane.

Another experiment concerns the target BLK (Homo sapiens, UniProt P51451). Kind of experiment: Z'-LYTE biochemical assay. The note with it: read-out: IC50 (nM) against BLK. The text has this: (§1) Table S2. Biochemical activities against a panel of kinase targets […]
(§2) aIC50 (nM) against EGFR L858R, BTK, JAK3, ITK and BLK were obtained with Z’-LYTE biochemical assay. bIC50 (nM) against MEK5 was obtained with LanthaScreen Binding activity assay. c Kd (nM) of MKK7 were obtained from KdELECT assays (DiscoverX). […]
(§3) (1 picture or pasted object on this page, not shown here)

Another experiment concerns the target BTK (Homo sapiens, UniProt Q06187). The experiment in a line: Z'-LYTE biochemical assay. Conditions: read-out: IC50 (nM) against BTK.
Text: as §1, §2, §3

For the next experiment, the target named is JAK3 (Homo sapiens, UniProt P52333). Kind of experiment: Z'-LYTE biochemical assay. Conditions: read-out: IC50 (nM) against JAK3.
Text: as §1, §2, §3

The next experiment has as its target ITK (Homo sapiens, UniProt Q08881). The experiment in a line: Z'-LYTE biochemical assay. The note with it: read-out: IC50 (nM) against ITK.
Text: as §1, §2, §3

A further experiment addresses EGFR L858R (Homo sapiens, UniProt P00533, L858R). Kind of experiment: Z'-LYTE biochemical assay. The note with it: read-out: IC50 (nM) against EGFR L858R.
Text: as §1, §2, §3

BLK, sequence (P51451 whole entry): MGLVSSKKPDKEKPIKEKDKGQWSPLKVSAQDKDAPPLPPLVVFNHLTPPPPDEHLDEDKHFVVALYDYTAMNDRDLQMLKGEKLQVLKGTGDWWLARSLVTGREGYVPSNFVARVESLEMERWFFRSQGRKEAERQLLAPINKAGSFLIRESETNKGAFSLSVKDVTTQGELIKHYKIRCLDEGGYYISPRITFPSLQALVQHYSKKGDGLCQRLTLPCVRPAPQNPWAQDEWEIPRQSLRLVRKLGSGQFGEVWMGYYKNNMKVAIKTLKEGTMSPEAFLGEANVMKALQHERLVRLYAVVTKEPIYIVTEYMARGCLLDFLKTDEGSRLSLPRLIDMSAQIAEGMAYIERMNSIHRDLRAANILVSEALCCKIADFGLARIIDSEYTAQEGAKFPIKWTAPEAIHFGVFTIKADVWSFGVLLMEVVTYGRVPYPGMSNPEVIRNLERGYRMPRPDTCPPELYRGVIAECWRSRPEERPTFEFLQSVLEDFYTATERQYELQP
BTK, sequence (Q06187 whole entry): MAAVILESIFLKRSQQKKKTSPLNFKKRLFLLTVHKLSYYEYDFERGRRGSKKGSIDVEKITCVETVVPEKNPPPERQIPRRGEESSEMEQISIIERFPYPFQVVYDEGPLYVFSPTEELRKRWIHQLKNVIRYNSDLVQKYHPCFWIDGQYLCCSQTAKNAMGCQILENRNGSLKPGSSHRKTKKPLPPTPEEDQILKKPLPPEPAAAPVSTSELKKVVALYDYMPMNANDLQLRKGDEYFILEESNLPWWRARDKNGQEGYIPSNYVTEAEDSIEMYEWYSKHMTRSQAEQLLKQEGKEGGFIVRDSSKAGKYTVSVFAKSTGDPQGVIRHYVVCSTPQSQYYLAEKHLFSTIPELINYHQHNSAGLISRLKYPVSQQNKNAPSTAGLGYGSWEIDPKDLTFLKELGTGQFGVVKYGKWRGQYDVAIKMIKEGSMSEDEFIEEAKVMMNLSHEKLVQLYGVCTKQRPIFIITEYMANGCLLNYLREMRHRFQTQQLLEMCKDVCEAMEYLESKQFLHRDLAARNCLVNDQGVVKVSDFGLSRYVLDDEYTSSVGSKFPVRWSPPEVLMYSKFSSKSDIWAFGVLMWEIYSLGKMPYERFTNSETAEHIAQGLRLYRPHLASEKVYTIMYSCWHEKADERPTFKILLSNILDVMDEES
JAK3, sequence (P52333 whole entry): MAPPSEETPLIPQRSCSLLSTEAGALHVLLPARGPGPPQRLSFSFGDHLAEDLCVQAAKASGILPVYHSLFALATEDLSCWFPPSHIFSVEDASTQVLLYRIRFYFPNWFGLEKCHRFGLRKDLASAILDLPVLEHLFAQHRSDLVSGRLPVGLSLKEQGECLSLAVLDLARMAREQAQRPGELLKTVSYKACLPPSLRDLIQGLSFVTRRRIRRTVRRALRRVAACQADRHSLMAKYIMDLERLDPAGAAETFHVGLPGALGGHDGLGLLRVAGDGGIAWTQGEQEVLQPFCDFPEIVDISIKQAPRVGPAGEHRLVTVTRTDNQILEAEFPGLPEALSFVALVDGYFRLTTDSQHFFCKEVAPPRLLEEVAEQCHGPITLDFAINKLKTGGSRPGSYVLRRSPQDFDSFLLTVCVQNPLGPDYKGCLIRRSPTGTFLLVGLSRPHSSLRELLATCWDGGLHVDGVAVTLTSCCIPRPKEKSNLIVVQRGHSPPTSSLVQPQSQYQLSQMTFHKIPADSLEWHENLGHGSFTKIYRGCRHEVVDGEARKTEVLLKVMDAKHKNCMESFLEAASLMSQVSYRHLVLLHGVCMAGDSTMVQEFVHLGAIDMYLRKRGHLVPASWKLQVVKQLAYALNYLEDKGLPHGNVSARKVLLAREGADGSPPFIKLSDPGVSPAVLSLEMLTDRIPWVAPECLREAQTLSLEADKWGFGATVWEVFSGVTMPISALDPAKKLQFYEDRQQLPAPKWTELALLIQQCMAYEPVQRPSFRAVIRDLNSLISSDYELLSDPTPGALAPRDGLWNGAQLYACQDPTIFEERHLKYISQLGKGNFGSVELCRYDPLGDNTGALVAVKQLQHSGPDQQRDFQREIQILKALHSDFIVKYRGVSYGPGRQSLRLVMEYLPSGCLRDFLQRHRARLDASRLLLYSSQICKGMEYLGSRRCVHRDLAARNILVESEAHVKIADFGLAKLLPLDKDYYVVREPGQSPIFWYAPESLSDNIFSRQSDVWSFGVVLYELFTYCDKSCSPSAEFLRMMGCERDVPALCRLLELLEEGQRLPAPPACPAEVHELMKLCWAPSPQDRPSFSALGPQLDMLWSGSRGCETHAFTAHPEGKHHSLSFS
EGFR L858R, sequence (P00533 25-1210 L858R): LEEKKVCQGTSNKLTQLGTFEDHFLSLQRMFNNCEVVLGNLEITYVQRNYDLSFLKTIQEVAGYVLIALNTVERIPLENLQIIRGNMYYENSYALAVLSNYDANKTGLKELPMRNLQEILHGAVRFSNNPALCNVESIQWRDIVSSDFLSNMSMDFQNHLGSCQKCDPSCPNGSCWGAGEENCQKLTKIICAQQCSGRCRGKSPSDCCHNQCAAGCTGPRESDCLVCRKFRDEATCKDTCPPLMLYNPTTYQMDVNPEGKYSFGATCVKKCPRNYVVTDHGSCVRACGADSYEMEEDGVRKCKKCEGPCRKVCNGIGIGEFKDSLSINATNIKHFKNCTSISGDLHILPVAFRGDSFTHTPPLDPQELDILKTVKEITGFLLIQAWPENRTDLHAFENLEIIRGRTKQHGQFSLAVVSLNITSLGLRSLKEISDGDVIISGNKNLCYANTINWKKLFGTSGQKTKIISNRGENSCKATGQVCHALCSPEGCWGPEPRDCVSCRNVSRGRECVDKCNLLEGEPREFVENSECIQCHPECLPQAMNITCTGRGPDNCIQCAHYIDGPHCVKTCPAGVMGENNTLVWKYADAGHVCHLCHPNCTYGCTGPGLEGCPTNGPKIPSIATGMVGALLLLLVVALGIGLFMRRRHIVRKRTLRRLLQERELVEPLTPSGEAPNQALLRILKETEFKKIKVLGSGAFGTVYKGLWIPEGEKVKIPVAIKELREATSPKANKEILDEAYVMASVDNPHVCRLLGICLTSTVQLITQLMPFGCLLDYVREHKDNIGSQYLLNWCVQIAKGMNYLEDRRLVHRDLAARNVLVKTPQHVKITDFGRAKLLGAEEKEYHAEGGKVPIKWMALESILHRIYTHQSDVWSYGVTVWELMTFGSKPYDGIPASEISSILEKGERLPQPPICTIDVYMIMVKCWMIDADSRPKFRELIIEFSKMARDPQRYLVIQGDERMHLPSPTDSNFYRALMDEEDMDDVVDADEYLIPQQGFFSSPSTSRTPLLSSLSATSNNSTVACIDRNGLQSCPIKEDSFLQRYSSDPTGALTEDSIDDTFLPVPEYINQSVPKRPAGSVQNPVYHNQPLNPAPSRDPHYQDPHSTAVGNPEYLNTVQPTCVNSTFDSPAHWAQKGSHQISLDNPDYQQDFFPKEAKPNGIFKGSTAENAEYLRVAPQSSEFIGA
ITK, sequence (Q08881 whole entry): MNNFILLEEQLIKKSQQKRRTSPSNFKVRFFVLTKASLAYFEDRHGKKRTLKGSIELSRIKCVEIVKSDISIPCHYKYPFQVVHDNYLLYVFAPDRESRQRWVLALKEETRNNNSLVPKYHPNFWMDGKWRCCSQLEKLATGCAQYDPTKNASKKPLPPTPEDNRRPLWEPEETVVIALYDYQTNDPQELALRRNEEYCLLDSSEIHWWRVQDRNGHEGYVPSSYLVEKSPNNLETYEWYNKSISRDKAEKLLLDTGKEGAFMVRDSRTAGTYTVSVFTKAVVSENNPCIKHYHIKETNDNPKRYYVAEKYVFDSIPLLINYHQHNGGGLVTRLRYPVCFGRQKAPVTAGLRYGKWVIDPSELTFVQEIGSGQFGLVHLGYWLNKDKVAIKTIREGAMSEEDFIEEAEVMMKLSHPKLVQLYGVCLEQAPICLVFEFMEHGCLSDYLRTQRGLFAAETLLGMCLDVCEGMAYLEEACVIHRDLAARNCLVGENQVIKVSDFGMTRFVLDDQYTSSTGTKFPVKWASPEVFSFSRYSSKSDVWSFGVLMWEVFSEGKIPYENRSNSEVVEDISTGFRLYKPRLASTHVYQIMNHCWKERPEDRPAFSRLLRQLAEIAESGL

Usually IC50 stands for the point on the concentration scale where inhibition reaches its midpoint. For the molecule `C=CC(=O)Nc1cc(C(=O)Nc2nc3cccc(C)c3n2[C@@H]2CCCCN(C(=O)C=C)C2)cs1` [ZNL-0056], the “inhibition of EGFR, ERK1/2, and Akt phosphorylation” value in experiment [1] is “significantly inhibited”. Further, the half-maximal inhibitory concentration (IC50) turned out to be 3.17 nM on BLK; 1.13 nM on BTK; 5.79 nM at JAK3; 7.81 nM at ITK; 6.21 nM at EGFR L858R.
